The values below come from patent US7745446B2, “Pyrazolo[1,5-c]pyrimidines” (Bayer Schering Pharma Aktiengesellschaft, priority 2004, dated 2010).

A value given as a limit tells only on which side of the number the result lay.

In test [1] the test system is phosphorylated Akt1 (Ser473) in MCF7 cells. Briefly: Cellular PI3K/Akt pathway assay (pAkt-ELISA). The test is classed as cell-based. Particulars: Homo sapiens, β-Heregulin stimulation, 48 h, read-out: Akt pathway inhibition (pAkt-ELISA): IC50. Here is the method: In order to study the cellular activity of the compounds according to the invention, an ELISA-based assay has been established. The assay is based on a Sandwich ELISA kit (PathScan™ Phospho-Akt1 (Ser473); Cell Signaling, USA; #7160).
The assay detects endogenous levels of phosphorylated Akt1 protein. A phospho-Akt (Ser473) antibody (Cell Signaling, USA; #9271) has been coated onto the microwells. After incubation with cell lysates, the phosphorylated Akt protein is captured by the coated antibody. Following extensive washing, Akt1 monoclonal antibody (Cell Signaling, USA; #2967) is added to detect the captured phospho-Akt1 protein. HRP-linked anti-mouse antibody (Cell Signaling, USA; #7076) is then used to recognize the bound detection antibody. HRP substrate (=TMB; Cell Signaling, USA; #7160) is added to develop colour. The magnitude of optical density for this developed color is proportional to the quantity of phosphorylated Akt1 protein.
MCF7 cells (ATCC HTB-22) are seeded into 96 well fate bottom plates at a density of 10000 cells/well. 24 hours after seeding the cells are starved using estrogen-free medium (IMEM including 0.1% charcoal treated FCS). […] To stimulate Akt phosphorylation, β-Heregulin (20 ng/ml) is added in parallel to the compounds. Wells containing unstimulated control cells (no β-Heregulin stimulation) are incubated with or without the diluted compound. Wells containing untreated control cells (no compound) are filled with medium containing 0.5% v:v DMSO and are with P-Heregulin or are not stimulated.
Cells are harvested under nondenaturating conditions and lysed with brief sonification in 1× cell lyses buffer (20 mM Tris (pH7.5), 150 mM NaCl, 1 mM ethylene diaminetetraacetate (EDTA), 1 mM ethylene glycolbis-(2-aminoethyl)-N,N,N′,N′-tetraacetic acid (EGTA), 1% Triton X-100, 2.5 mM sodium pyrophosphate, 1 mM β-glycerolphosphate, 1 mM Na3VO4, 1 μg/ml leupeptin). The lysate is microcentrifuged for 10 minutes at 4° C. and the supernatant is transferred to a new tube. 100 μl of sample diluent (0.1% tween-20, 0.1% sodium azide in 20× PBS) are added to a microcentrifuge tube and 100 μl of cell lysate are transferred into the tube and vortexed. 100 μl of each diluted cell lysate are added to the appropriate well (phospho-Akt (Ser473) antibody coated microwells; Cell Signaling, USA; #7160) and incubated overnight at 4° C. The plates are washed 4 times with 1× wash buffer (1% tween-20, 0.33% thymol, in 20×PBS). Then 100 μl of detection antibody (Akt1 (2H10) monoclonal detection antibody; Cell Signaling, USA; #2967) are added to each well and incubated for 1 h at 37° C. The washing procedure is repeated between each step. […] The absorbance is read at 450 nm (Wallac Victor2; Perkin Elmer, USA) within 30 minutes after adding STOP solution. […]

Test [2] has as its target T1, GST-ΔPH-Akt1 (Homo sapiens, UniProt P31749).
T1 construct: named GST-deltaPH-Akt1; 107-480aa; cloned in the pAcGl vector; GST (N); made in house; host or cells: SF9 insect cells (baculovirus vector pAcG1), co-expressed with PDK1
Briefly: Biochemical ΔPH Akt1 assay (flashplate, 33P incorporation into histone 2B). The settings on record: 100 nM ATP, histone 2B substrate; read-out: ΔPHAkt1 inhibition: IC50. The gist of the method:
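The enzyme was GST-fused human Akt1 lacking the PH domain (aa 107–480), co-expressed with PDK1 in Sf9 cells, at 100 ng/well, with 100 ng/well histone 2B substrate and 100 nM ATP including 33P-ATP. 33P incorporation was counted on scintillant-coated flashplates.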

T1 sequence (P31749 107-480, stated change not applied): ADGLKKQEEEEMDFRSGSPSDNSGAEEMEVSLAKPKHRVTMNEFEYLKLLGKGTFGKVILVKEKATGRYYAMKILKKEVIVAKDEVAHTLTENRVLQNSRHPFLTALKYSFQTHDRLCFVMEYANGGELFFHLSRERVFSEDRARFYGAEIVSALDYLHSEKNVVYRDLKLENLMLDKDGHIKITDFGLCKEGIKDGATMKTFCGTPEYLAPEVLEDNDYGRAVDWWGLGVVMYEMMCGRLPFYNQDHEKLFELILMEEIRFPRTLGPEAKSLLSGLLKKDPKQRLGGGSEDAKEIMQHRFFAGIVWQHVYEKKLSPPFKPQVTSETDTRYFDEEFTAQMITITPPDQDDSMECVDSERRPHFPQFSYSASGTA

With `NCCCC(=O)Nc1ccc(Nc2nc(-c3cccc4c3oc3ccccc34)cc3ccnn23)cc1` [Example 24, 4-Amino-N-[4-(5-dibenzofuran-4-yl-pyrazolo[1,5-c]pyrimidin-7-ylamino)-phenyl]-butyramide], the IC50 (as a rule, the concentration that gives 50% inhibition) in test [1] is not above 6 µM; in test [2], not above 1.75 µM.

As to `COc1cccc(-c2ccc(-c3cc4ccnn4c(Nc4ccc(NC(=O)c5ccc(CN)cc5)cc4)n3)cc2)c1` [Example 59, 4-Aminomethyl-N-{4-[5-(3′-methoxy-biphenyl-4-yl)-pyrazolo[1,5-c]pyrimidin-7-ylamino]-phenyl}-benzamide], the IC50 in test [1] was not above 6 µM; in test [2], not above 1.75 µM.

On to `O=C(Nc1cccc(Nc2nc(-c3cccc4c3oc3ccccc34)cc3ccnn23)c1)c1ccc2c(c1)CCNC2` [Example 63, 1,2,3,4-Tetrahydro-isoquinoline-6-carboxylic acid [3-(5-dibenzofuran-4-yl-pyrazolo[1,5-c]pyrimidin-7-ylamino)-phenyl]-amide], for which the IC50 in test [1] is not above 6 µM; in test [2], not above 1.75 µM.

Regarding `COc1cccc(-c2ccc(-c3cc4c(Br)cnn4c(Nc4ccc(NC(=O)c5ccc(CN)cc5)cc4)n3)cc2)c1` [Example 87, 4-Aminomethyl-N-{4-[3-bromo-5-(3′-methoxy-biphenyl-4-yl)-pyrazolo[1,5-c]pyrimidin-7-ylamino]-phenyl}-benzamide], the IC50 in test [1] was not above 6 µM; in test [2], not above 1.75 µM.
